Results taken from ChEMBL document CHEMBL1154142, “Tyrosine derivatives isolated from Streptomyces sp. IFM 10937 in a screening program for TRAIL-resistance-overcoming activity” (2008).
The source made the active and inactive calls. The rule behind the calls is not given here.

Experiments:
Type in all cases: functional
AGS [1] = test: Anticancer activity against TRAIL-resistant human AGS cells assessed as cell viability at 17.5 uM after 24 hrs by fluorometric microculture cytotoxicity assay in presence of 100 ng/ml TRAIL
AGS [2] = test: Anticancer activity against TRAIL-resistant human AGS cells assessed as cell viability at 150 uM after 24 hrs by fluorometric microculture cytotoxicity assay in presence of 100 ng/ml TRAIL
AGS [3] = test: Anticancer activity against TRAIL-resistant human AGS cells assessed as cell viability at 75 uM after 24 hrs by fluorometric microculture cytotoxicity assay in presence of 100 ng/ml TRAIL
AGS [4] = test: Anticancer activity against TRAIL-resistant human AGS cells assessed as cell viability at 37.5 uM after 24 hrs by fluorometric microculture cytotoxicity assay in presence of 100 ng/ml TRAIL

Structure (SMILES): O=c1cc(-c2ccc(O)c(O)c2)oc2cc(O)cc(O)c12 [LUTEOLIN]
- Activity (AGS [1]): 70%

Structure (SMILES): CC(=O)N[C@@H](Cc1ccc(O)c(CC=C(C)C)c1)C(=O)O
- Activity (AGS [2]): 67%
- Activity (AGS [3]): 77%

Structure (SMILES): CO[C@@H]1[C@@H](OC(N)=O)[C@@H](O)[C@H](Oc2ccc3c(O)c(NC(=O)c4ccc(O)c(CC=C(C)C)c4)c(=O)oc3c2C)OC1(C)C [NOVOBIOCIN]
- Activity (AGS [3]): 63%
- Activity (AGS [4]): 72%

Structure (SMILES): CC(C)=CCc1cc(C[C@H](N)C(=O)O)ccc1O
- Activity (AGS [2]): inactive
- Activity (AGS [3]): inactive
